The source of these data is PubChem BioAssay (NCI).

Test systems include CCRF-CEM leukemia; EKVX NSCLC; NCI-H460 lung; SF-295 CNS; SN12C renal; UACC-62 melanoma.
Experiment in all cases: NCI-60 cell line screen, 48 h

Each structure is given as a SMILES string.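 Compound exposure: 48 hours, 5 concentrations, 96-well plates. At the GI50, growth is halved. TGI marks complete inhibition of growth.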

For `CCOC(=O)c1cnc(SCc2ccc(Cl)c(Cl)c2)nc1N1CC1`, the GI50 in the assay on CCRF-CEM leukemia was 2.82 µM; in the assay on EKVX NSCLC, 3.8 µM; in the assay on NCI-H460 lung it was 2.88 µM; in the assay with SF-295 CNS, 2.43 µM; with SN12C renal it was 4.37 µM; with UACC-62 melanoma, 4.23 µM. In addition, the TGI in the assay with CCRF-CEM leukemia is 28.1 µM; with EKVX NSCLC it was 18.6 µM; in the assay with NCI-H460 lung it was 7.66 µM; in the assay with SF-295 CNS, 8.99 µM; in the assay on SN12C renal it was 21.2 µM; with UACC-62 melanoma, 19.5 µM.
Turning to `COc1cc(C(=O)O)c([N+](=O)[O-])c(OC)c1OC`, the TGI in the assay on EKVX NSCLC, in the assay with NCI-H460 lung, with SF-295 CNS, with SN12C renal and in the assay with UACC-62 melanoma was > 100 µM in each case.
For the molecule `Nc1ccn(C=C=CCO)c(=O)n1`, the TGI in the assay with CCRF-CEM leukemia, with EKVX NSCLC, in the assay with SF-295 CNS, in the assay with SN12C renal and with UACC-62 melanoma was > 1000 µM each time. Further, the GI50 with EKVX NSCLC, in the assay on SF-295 CNS, in the assay on SN12C renal and in the assay with UACC-62 melanoma was > 1000 µM each time.
In the case of `Cn1cc(-c2ccc(=O)n(Cc3cccc(-c4ncc(OCCN5CCOCC5)cn4)c3)n2)cn1`, the GI50 was 82.1 µM in the assay with CCRF-CEM leukemia; > 100 µM with NCI-H460 lung; 0.49 µM with SF-295 CNS; > 69.4 µM with SN12C renal; 48.7 µM in the assay on UACC-62 melanoma. The TGI in the assay on CCRF-CEM leukemia, with NCI-H460 lung, in the assay with SF-295 CNS, in the assay on SN12C renal and in the assay with UACC-62 melanoma was > 100 µM throughout.
On to `COc1cc[nH]c1/C=C1\C(=O)Nc2ccc(F)c(C#C[C@@H](O)[C@@H](N)[C@@H](C)O)c21`, for which the GI50 is 0.709 µM with CCRF-CEM leukemia; 0.515 µM in the assay with NCI-H460 lung; 0.689 µM with SF-295 CNS; 0.51 µM in the assay with SN12C renal; 0.277 µM with UACC-62 melanoma. The TGI in the assay on CCRF-CEM leukemia is 2.35 µM; with NCI-H460 lung, 2.77 µM; in the assay with SF-295 CNS, 3.44 µM; with SN12C renal it was 8.38 µM; in the assay with UACC-62 melanoma, 0.853 µM.
Regarding `C1=CN2C[n+]3cccc(OCc4ccccc4)c3N=C2C(OCc2ccccc2)=C1`, the TGI in the assay on EKVX NSCLC was > 100 µM; with NCI-H460 lung it was > 100 µM; in the assay with SF-295 CNS, 50 µM; with SN12C renal it was 25.3 µM; with UACC-62 melanoma, 26.6 µM.
With `ClC(=Nc1cccc2ccccc12)N(c1ccccc1)c1ccccc1`, the TGI in the assay on NCI-H460 lung was 90.8 µM; with SF-295 CNS, > 100 µM; in the assay with SN12C renal, > 100 µM; with UACC-62 melanoma, > 100 µM.
`COc1ccc(/C(=C/c2cc(OC)c(OC)c(OC)c2)[N+](=O)[O-])cc1`: the GI50 with EKVX NSCLC is 1.96 µM; in the assay with NCI-H460 lung, 2.24 µM; in the assay with SF-295 CNS, 2.09 µM; in the assay with SN12C renal, 1.6 µM; in the assay on UACC-62 melanoma, 1.56 µM. Further, the TGI amounted to 4.32 µM in the assay with EKVX NSCLC; 5.23 µM in the assay on NCI-H460 lung; 5.34 µM in the assay on SF-295 CNS; 3.24 µM in the assay with SN12C renal; 3.07 µM in the assay on UACC-62 melanoma.
`O=C1c2cc3c(cc2-c2c1c1cc(Cl)c(Cl)cc1c(=O)n2CCCn1ccnc1)OCO3`: the GI50 is < 0.01 µM in the assay on CCRF-CEM leukemia; 0.0553 µM in the assay with EKVX NSCLC; < 0.01 µM in the assay on NCI-H460 lung; < 0.01 µM in the assay with SF-295 CNS; < 0.01 µM in the assay on UACC-62 melanoma. In addition, the TGI in the assay with CCRF-CEM leukemia was > 100 µM; in the assay on EKVX NSCLC, > 100 µM; with NCI-H460 lung it was > 100 µM; in the assay on SF-295 CNS, 0.0131 µM; in the assay with UACC-62 melanoma, 0.0117 µM.
`COc1cccc(NC(=O)c2sc3nc4c(cc3c2N)CCCC4)c1`: the GI50 is 0.347 µM with CCRF-CEM leukemia; 0.474 µM in the assay with NCI-H460 lung; 0.481 µM in the assay with SF-295 CNS; 3.98 µM in the assay with SN12C renal; 0.391 µM in the assay on UACC-62 melanoma. The TGI is 19.2 µM in the assay on CCRF-CEM leukemia; > 100 µM in the assay with NCI-H460 lung; 14 µM with SF-295 CNS; > 100 µM in the assay with SN12C renal; > 100 µM in the assay on UACC-62 melanoma.
On to `Cc1ccc(-c2c(C#N)c(N)nc(N3CCOCC3)c2C#N)o1`, for which the GI50 in the assay with CCRF-CEM leukemia was 36.2 µM; with EKVX NSCLC it was 21.2 µM; in the assay with NCI-H460 lung, 43.3 µM; in the assay on SN12C renal, 41.6 µM; in the assay on UACC-62 melanoma, 39 µM. Moreover, the TGI in the assay with CCRF-CEM leukemia, with EKVX NSCLC, in the assay on NCI-H460 lung, in the assay on SN12C renal and in the assay with UACC-62 melanoma was > 100 µM in each case.
`COc1cc2c3c(n(C)c(=O)c2cc1OC)-c1cc2c(cc1/C3=C\CCCCN)OCO2`: the GI50 is 18.4 µM in the assay with EKVX NSCLC; 5.02 µM in the assay on NCI-H460 lung; 3.56 µM in the assay with SF-295 CNS; 9.39 µM with SN12C renal; 12.5 µM with UACC-62 melanoma. Also, the TGI in the assay with EKVX NSCLC was 57.2 µM; in the assay with NCI-H460 lung, > 100 µM; with SF-295 CNS, 15.2 µM; with SN12C renal it was 24.4 µM; with UACC-62 melanoma, 37.8 µM.
`COc1cc2cc(Oc3ccc(NC(=O)Nc4cccc(C(F)(F)F)c4)cc3)c(C)nc2cc1OCCN1CCCCC1`: the GI50 in the assay with EKVX NSCLC was 1.51 µM; in the assay on NCI-H460 lung, 1.83 µM; with SF-295 CNS, 1.8 µM; with SN12C renal, 1.66 µM; with UACC-62 melanoma it was 1.75 µM. Moreover, the TGI in the assay with EKVX NSCLC worked out at 2.92 µM; in the assay on NCI-H460 lung, 3.37 µM; in the assay with SF-295 CNS, 3.24 µM; in the assay with SN12C renal it was 3.15 µM; with UACC-62 melanoma, 3.15 µM.
With `CC1(C)N=C(N)N=C(N)N1c1cccc(/C=C/C=C/c2cccc([N+](=O)[O-])c2)c1`, the GI50 with CCRF-CEM leukemia was 3.61 µM; in the assay on NCI-H460 lung it was 2.85 µM; with SF-295 CNS, 10.3 µM; in the assay on SN12C renal, 5.3 µM; with UACC-62 melanoma, 3.74 µM. For the same molecule, the TGI with CCRF-CEM leukemia came to 18.9 µM; with NCI-H460 lung, 15.3 µM; in the assay with SF-295 CNS it was 28.3 µM; with SN12C renal it was 20.1 µM; with UACC-62 melanoma, 17.9 µM.
As for `COc1cc2c(cc1OC)C(=O)C(Br)CC2` (centres undefined), the GI50 is 2.82 µM in the assay on CCRF-CEM leukemia; 4.27 µM with NCI-H460 lung; 14.3 µM in the assay on SF-295 CNS; 3.49 µM with SN12C renal; 2.01 µM in the assay with UACC-62 melanoma. Besides, the TGI in the assay with CCRF-CEM leukemia was found to be 11.9 µM; with NCI-H460 lung, 16.9 µM; in the assay on SF-295 CNS, 28.4 µM; with SN12C renal, 12.8 µM; in the assay with UACC-62 melanoma, 4.55 µM.
As for `O=C1/C(=C\c2ccc(Cl)cc2)CN(C(=S)Nc2ccccc2)C/C1=C\c1ccc(Cl)cc1`, the GI50 was 0.453 µM in the assay on CCRF-CEM leukemia; 0.471 µM in the assay on NCI-H460 lung; 0.389 µM with SF-295 CNS; 0.544 µM with SN12C renal; 1.2 µM with UACC-62 melanoma. Also, the TGI with CCRF-CEM leukemia was determined as 13.2 µM; with NCI-H460 lung it was 2.15 µM; in the assay with SF-295 CNS it was 1.73 µM; with SN12C renal it was 1.89 µM; in the assay with UACC-62 melanoma, 2.92 µM.
Turning to `Cc1cc(NC(=O)C2c3ccccc3C(=O)N(CC(C)C)C2c2cccs2)no1` (centres undefined), the GI50 with CCRF-CEM leukemia was 82.5 µM; in the assay on NCI-H460 lung, > 100 µM; with SF-295 CNS, 29 µM; with SN12C renal it was > 100 µM; with UACC-62 melanoma it was 86 µM. Moreover, the TGI with CCRF-CEM leukemia, in the assay with NCI-H460 lung, in the assay with SF-295 CNS, in the assay with SN12C renal and with UACC-62 melanoma was > 100 µM each time.
For the molecule `Cc1cc2c(C)c3cc(C)c(N)cc3nc2cc1N`, the GI50 in the assay on CCRF-CEM leukemia was 0.93 µM; in the assay on NCI-H460 lung, 0.332 µM; with SF-295 CNS, 0.909 µM; in the assay with SN12C renal it was 0.987 µM; in the assay on UACC-62 melanoma it was 0.998 µM. Further, the TGI with CCRF-CEM leukemia turned out to be 10.6 µM; in the assay with NCI-H460 lung it was 1.34 µM; with SF-295 CNS it was 4.87 µM; with SN12C renal, 9.71 µM; in the assay with UACC-62 melanoma, 3.58 µM.
As to `O=c1c(Cl)nnc2sc3ccccc3n12`, the GI50 is 24.2 µM with EKVX NSCLC; 37.7 µM with NCI-H460 lung; 45.6 µM with SF-295 CNS; 24.6 µM in the assay with SN12C renal; 40.8 µM in the assay on UACC-62 melanoma. Also, the TGI in the assay with EKVX NSCLC, in the assay on NCI-H460 lung, in the assay on SF-295 CNS, in the assay on SN12C renal and with UACC-62 melanoma was > 100 µM in each case.
In the case of `OB([O][Hg][c]1ccccc1)[O][Hg][c]1ccccc1`, the GI50 in the assay with NCI-H460 lung is 0.589 µM; in the assay on SF-295 CNS, 1.6 µM; with SN12C renal, 0.266 µM; with UACC-62 melanoma it was 0.454 µM. Moreover, the TGI was determined as 3.06 µM in the assay on NCI-H460 lung, 3.17 µM in the assay on SF-295 CNS, 0.799 µM in the assay with SN12C renal and 1.69 µM in the assay with UACC-62 melanoma.
For `CC12OC(C(=O)C13CC3)C1C(=O)c3ccccc3C(=O)C12` (centres undefined), the GI50 was 13.9 µM in the assay with CCRF-CEM leukemia, 4.48 µM with EKVX NSCLC and 29.9 µM with NCI-H460 lung. The TGI with CCRF-CEM leukemia was 42.5 µM; in the assay on EKVX NSCLC, 38.4 µM; in the assay on NCI-H460 lung it was > 100 µM.
For `CC(Cc1ccc(Cl)cc1Cl)NO` (centres undefined), the TGI with CCRF-CEM leukemia, in the assay on EKVX NSCLC, in the assay on SF-295 CNS, in the assay with SN12C renal and with UACC-62 melanoma was > 100 µM in each case.
In the case of `O=S(=O)(c1ccc(NC(=S)N/N=C/c2ccccc2O)cc1)N1CCCCC1`, the TGI in the assay on CCRF-CEM leukemia is 1.66 µM; in the assay with EKVX NSCLC it was 76.2 µM; with SF-295 CNS, 3.45 µM; with SN12C renal, 3.92 µM; in the assay with UACC-62 melanoma it was 0.262 µM.
